“Also recorded” adds a separate entry of the source.
How the values were obtained:
[1] = system: lymphocytes; assay: Lymphocyte counts in healthy volunteers (MAD); type: in vivo, human
Experimental: (§1) Participants in Part 2, Cohorts 1 through 3, received a daily oral dose of the compound of Formula I-11 (50, 100, or 200 mg liquid formulation respectively) or placebo for 7 days. A daily oral dose of the compound of Formula I-11 or placebo in participants in Part 2, Cohort 4 (350 mg liquid formulation) was planned for 14 days but was discontinued early in all subjects, either by the Investigator because of AEs, or by the Sponsor. A decision was made by the Sponsor to discontinue dosing of the entire cohort based on the frequency of AEs and laboratory abnormalities after Day 9. In Cohort 4, participants on the compound of Formula I-11 received daily oral dosing of 350 mg for up to 7 days; one placebo participant received daily oral dosing for 9 days. Samples were collected for determination of pharmacodynamic parameters at pre-dose daily and to 24 hours post dose (day 8) while on drug. Daily trough PK samples were collected for the determination of steady-state from Day 2 to Day 12 or 13. Participants returned to the site on Day 30 for an end-of-study visit. Safety was evaluated by a Safety Review Committee prior to escalation to the next dose level cohort.

[2] = system: serum ferritin; assay: Serum ferritin in healthy volunteers; type: in vivo, human
Experimental: (§2) Participants in Part 1 received a single oral dose of the compound of Formula I-11 or placebo on Day 1 and serial PK samples were collected. Baseline assessments were performed on day −1 prior to dosing. Samples were collected for determination of pharmacodynamic parameters at pre-dose daily and up to 24 hours post dose (day 2) after a single oral dose of the compound of Formula I-11. Participants remained at the study site for observation for 24 hours post-dose through the PK sample collection on Day 2. Participants returned to the site for the 48, 72, and 120-hour post-dose sample collection on Days 3, 4, and 6. Safety was evaluated by a Safety Review Committee prior to escalation to the next dose level cohort.
Participants in Part 2, Cohorts 1 through 3, received a daily oral dose of the compound of Formula I-11 (50, 100, or 200 mg liquid formulation respectively) or placebo for 7 days. […] Safety was evaluated by a Safety Review Committee prior to escalation to the next dose level cohort.
(§3) Pharmacodynamic endpoints: Protocol-specified endpoints were assessed at baseline and regularly throughout the study period. These assessments included measurements of serum iron, transferrin saturation (calculated as serum iron/total iron-binding capacity), serum ferritin, serum hepcidin, and reticulocyte hemoglobin content. […]

[3] = Phase 1 SAD/MAD study in healthy volunteers: pharmacokinetics; type: in vivo, human
Excerpt: (§4) The primary objectives of this study were to a) evaluate safety and tolerability of escalating doses of the compound of Formula I-11 administered as single and multiple oral doses in healthy male volunteers and healthy postmenopausal female volunteers and b) evaluate the PK parameters following escalating doses of the compound of Formula I-11 administered as single and multiple oral doses. The secondary objective of this study was to evaluate the pharmacodynamic (PD) parameters following escalating doses of the compound of Formula I-11 administered as single and multiple oral doses. This study was conducted in two parts.
as §2, with “Participants remained at the study site for observation for 24 hours post-dose through the PK sample collection on Day 2. Participants returned to the site for the 48, 72, and 120-hour post-dose sample collection on Days 3, 4, and 6.” left out
Participants in Part 2, Cohorts 1 through 3, received a daily oral dose of the compound of Formula I-11 (50, 100, or 200 mg liquid formulation respectively) or placebo for 7 days. […] Safety was evaluated by a Safety Review Committee prior to escalation to the next dose level cohort. […]

[4] = system: transferrin saturation; assay: Transferrin saturation (TSAT) in healthy volunteers; type: in vivo, human
Experimental: as §2, §1
(§5) Pharmacodynamic endpoints: Protocol-specified endpoints were assessed at baseline and regularly throughout the study period. These assessments included measurements of serum iron, transferrin saturation (calculated as serum iron/total iron-binding capacity), serum ferritin, serum hepcidin, and reticulocyte hemoglobin content. Measurements of all pharmacodynamic end points were made using standard clinical laboratory tests. Hepcidin analysis was performed using an ELISA kit from Intrinsic LifeSciences (Intrinsic Hepcidin IDx™ ELISA kit).

[5] = Phase 1 SAD/MAD study in healthy volunteers: safety and tolerability; type: in vivo, human; conditions: for dose level up to which well tolerated: healthy participants
Excerpt: A total of 131 healthy, males aged 18 to 60 years and post-menopausal females aged 45 to 60 years, participated in this study.
as §4
Part 1 included 80 participants (10 cohorts of 8 participants each). Male and female participants who met the eligibility criteria were randomly assigned, in a ratio of 3:1 to receive the compound of Formula I-11 or matching placebo, N=6 and 2 per dose cohort, respectively. Participant enrollment included […] males and 12.5% females (postmenopausal). The IMP formulation used in Cohorts 1 through 6 was an oral capsule (doses of 1, 3, 10, 30, 100, or 300 mg capsule formulation). An oral liquid formulation was evaluated in Cohorts 7 through 10 (doses of 30, 100, 300 or 450 mg liquid formulation).
as §2
Part 2, Cohorts 1 through 4, included 41 participants (4 cohorts of 10 participants each and 1 additional placebo participant in Cohort 1). Male and female participants who met the eligibility criteria were randomly assigned at a ratio of 4:1 to receive either the compound of Formula I-11 oral liquid formulation or matching placebo, N=8 and 2 per dose cohort respectively. Forty (97.6%) males and 1 (2.4%) female (placebo) participant were enrolled.
as §1
Part 2, MAD Cohort 5 (C5) participants received either the compound of Formula I-11, 100 mg (n=8) or placebo (n=2) on Days 1, 2, 3, 4, 5, 6, 7. The last dose was administered on the morning of Day 7. […]

[6] = system: serum iron; assay: Serum iron in healthy volunteers; type: in vivo, human
Experimental: as §2, §1, §5

[7] = system: reticulocyte hemoglobin content; assay: Reticulocyte hemoglobin content in healthy volunteers (MAD); type: in vivo, human
Experimental: as §1, §5

[8] = system: serum hepcidin; assay: Serum hepcidin in healthy volunteers (Intrinsic Hepcidin IDx ELISA); type: in vivo, human
Experimental: as §1, with “Daily trough PK samples were collected for the determination of steady-state from Day 2 to Day 12 or 13. Participants returned to the site on Day 30 for an end-of-study visit.” left out, “cohort. […]” for “cohort.”
as §3

[9] = system: hepcidin 25; assay: Time course of serum hepcidin in wild-type mice (ELISA); type: in vivo, C57BI/6 mice; conditions: 5 mg/kg gavage once daily, third treatment day
Experimental: (§6) To assess the effect of the compound of Formula I-42, a small molecule selective ALK2 kinase inhibitor, on hepcidin and serum iron, a time course experiment was conducted. For time course analysis, female C57BI/6 mice were gavaged once daily with either the compound of Formula I-42 (5 mg/kg), or vehicle. On the third treatment day, ten mice from each dosing group were euthanized 4, 6, 8, 12, 16, or 24 hours post-dosing. Blood was sampled and serum extracted. The mature form of hepcidin (hepcidin 25) was measured in serum with the use of a commercial ELISA (Intrinsic LifeSciences, CA) as per the manufacturer's instructions. Serum iron levels were determined with the use of a commercial assay that was based on the standard bathophenanthroline disulfonate method (BioAssay Systems, CA) as per the manufacturer's instructions. […] Data are shown as the average±SEM.

[10] = system: non-dextran-bound iron content in livers; assay: Non-dextran-bound liver iron in iron dextran mouse model of iron overload, second assay (10% HCl 10% TCA extraction); type: in vivo, CD1 mice; conditions: 5 mg/kg QD, iron overloaded mice; **P<0.01, ****P<0.0001
Experimental: (§7) After 20 days of iron loading, a subgroup of mice was sacrificed to confirm iron overload. The remaining iron loaded mice were dosed QD with either the compound of Formula I-42, a small molecule selective ALK2 kinase inhibitor (5 mg/kg) or vehicle. […] Mice were sacrificed 16 hours post the 1st dose (16 hr) and […] post the 3rd dose (63 hr) of the compound of Formula I-42 and livers dissected and weighed.
(§8) In the second assay, non-heme tissue iron was extracted via acid hydrolysis and iron levels determined using the bathophenanthroline disulfonate method. Briefly, 50 mg sections of mouse liver were flash frozen on liquid nitrogen at study termination. Samples were processed by addition of a 10% HCl 10% Trichloroacetic acid mixture and allowed to extract for 20 hours at 65° C. Following extraction, samples were cooled to room temperature and centrifuged briefly. Samples were transferred to a 96-well plate at the appropriate dilution and a chromogen reagent mixture containing of bathophenanthrolinedisulfonic acid, thioglycolic acid, and saturated sodium acetate was added. Samples and standards and blanks were then read via absorbance at 535 nm on a SpectraMax plate reader after a brief incubation. Sample concentrations were determined by linear regression analysis in GraphPad Prism. […] Data are shown as average±SEM. […]

[11] = system: serum iron; assay: Time course of serum iron in wild-type mice (bathophenanthroline disulfonate method); type: in vivo, C57BI/6 mice; conditions: 5 mg/kg gavage once daily
Experimental: as §6

[12] = system: liver iron content; assay: Liver iron content in iron dextran mouse model of iron overload, first assay (30% HCl 10% TCA extraction); type: in vivo, CD1 mice; conditions: 5 mg/kg QD, by 63 hours of dosing, iron overloaded mice; ****P<0.0001
Experimental: as §7
as §8, with “Two assays were performed to evaluate tissue iron. In” for “In”, “the first” for “the second”, “a 30%” for “a 10%”, “containing” for “containing of”, “standards” for “standards and blanks”, “reader immediately.” for “reader after a brief incubation.”

[13] = Day 4, MAD first dose level (50 mg daily)
[14] = Day 4, MAD fourth dose level (350 mg daily)
[15] = Day 4, MAD second dose level (100 mg daily)
[16] = Day 4, MAD third dose level (200 mg daily)

## COc1cc2c(-c3cnn4cc(N5CCC(N6CCN(C)CC6)CC5)cnc34)ccnc2cc1F [Formula I-11]
[1]; after the treatment period ended
  reversibility of lymphopenia: reversible
[1]; repeated oral administration, onward
  development of lymphopenia (lymphocyte counts<1.0×10^9 cells/L): ≥ 6 day
[1]; repeated oral administration, post treatment, higher doses
  start of decreases in lymphocyte counts: 5 days
[2]; MAD cohort participants
  effect on serum ferritin: decreases were observed in serum ferritin
[2]; SAD versus MAD
  effect on serum ferritin, single versus multiple doses: observed only after multiple doses
[3]; both sexes, human, in vivo, oral, approximately
  half-life: 10 to 15 h
[3]; multiple doses from 50-200 mg
  mean AUC and Cmax versus dose: increased linearly with greater than dose-proportional increases
[4]; [13]
  transferrin saturation mean percent change from baseline: 1.6%
[4]; [14]
  transferrin saturation mean percent change from baseline: 30.1%
[4]; [15]
  transferrin saturation mean percent change from baseline: 1.5%
[4]; [16]
  transferrin saturation mean percent change from baseline: 7.5%
[4]; once-daily doses of 50 mg
  observed PD response (transferrin saturation): not substantially different from placebo
[4]; single dose of 30 mg, liquid formulation
  observed PD response (transferrin saturation): not substantially different from placebo
[4]; single or repeated doses of 100 mg or above
  effect on transferrin saturation: sustained, dose-related increases in transferrin saturation
[5]; after 7 daily oral doses
  dose level up to which well tolerated: up to 200 mg
[5]; human, in vivo
  AEs reported in >2 treated subjects and higher than placebo: headache, nausea, vomiting, diarrhea, gastroenteritis, chills, pyrexia, myalgia, decreased appetite, lymphopenia, neutropenia, abdominal discomfort, abdominal pain (upper), dizziness, fatigue, rhinorrhea, tonsillitis, and liver enzyme increases
  AEs that led to study drug discontinuation in three or more participants: lymphopenia and chills
  participants who discontinued the study due to AEs: 10 of 40 (25%)
  serious adverse events: no serious adverse events
  severity of the majority of AEs: mild or moderate in severity
  subjects who discontinued the study due to AEs: none
  subjects with increases in ALT>2×ULN: 3
[5]; single oral dose
  dose level up to which well tolerated: up to 450 mg
[6]; [13]
  serum iron mean change from baseline: 1.48 μM/L
[6]; [14]
  serum iron mean change from baseline: 17.71 μM/L
[6]; [15]
  serum iron mean change from baseline: 0.59 μM/L
[6]; [16]
  serum iron mean change from baseline: 5.11 μM/L
[6]; MAD, some participants exhibiting large PD effects on Day 4
  serum iron concentrations by Day 7: returned to baseline or below
[6]; multiple dose regimen, day of treatment
  time of peak serum iron concentrations: Day 3 or 4
[6]; single (SAD) or once-daily (MAD) oral administration
  effect on serum iron: rapid, robust, and sustained dose-related increases in serum iron
[6]; single dose, Day 2, post-dose
  time of peak serum iron effect: 24 h
[7]; MAD
  peak increase in reticulocyte hemoglobin content: 7 days
[7]; MAD cohorts 1-4, post-dosing
  start of increase in reticulocyte hemoglobin content: 4 days
[7]; repeated administration
  effect on reticulocyte hemoglobin content: increases over baseline in the hemoglobin content of reticulocytes
[8]; MAD Cohort 5, 100 mg
  earliest decrease in hepcidin after first dose: 4 h
[8]; once-daily oral over 7 days, similar at 50 mg, 100 mg and 200 mg
  effect on serum hepcidin versus placebo: robust decreases in baseline hepcidin

## COc1cc2c(-c3cnn4cc(N5CC(N6CCN(C)CC6)C5)cnc34)ccnc2cc1F [Formula I-42]
[9]
  onset of hepcidin reduction: as soon as four hours post-administration
[9]; post-administration
  hepcidin reduction sustained through: 12 h
[9]; wild-type mice
  effect on circulating hepcidin: reduced circulating hepcidin levels
[10]
  effect on non-dextran-bound iron content in livers: significantly reduced non-dextran-bound iron content
[11]; at 16 hours, average
  peak serum iron: 716.31 µg/dL
[11]; third treatment day
  onset of serum iron increase: eight hours post-administration
[11]; third treatment day, post-administration
  time of peak serum iron: 16 h
[11]; third treatment day, wild-type mice
  effect on serum iron: increased serum iron
[12]
  effect on liver iron content: reduce liver iron content; also recorded: significantly reduced liver iron content
